Measured values from patent US8147838B2, “Peptide” (priority 2005, dated 2012).
Residues, ends and D or L forms follow the SMILES beside them. No end group written: not given here.

Legend:
[1] = target: MHC class I allele A*0101 (A1) (Homo sapiens, UniProt P04439, A114D/A174V/A182V/D101N/D185E/E176A/E190D/L180R/Q94H/R68K/S129P/T187R/V100A/V91M/W191G); experiment: iScore multi-parametric analysis, A*0101; assay type: binding; details: level of binding: >0.5, 0.25-0.5, <0.25
Experimental: (§1) Finally, multiparametric analysis is performed on the results from these assays and an iScore is generated. The iScore represents a measure of the overall quality of peptide-MHC binding, enabling candidate peptides to be ranked in order of binding quality and allowing rational prioritisation of peptides for functional cellular follow-up studies.
(§2) As part of the validation of the iTopia system, a panel of overlapping peptides derived from the CMV pp 65 protein were used and their binding properties for the A*0201 allele analysed. A number of T cell epitopes restricted by HLA A*0201 had already been identified (by more conventional methodologies) by other researchers for this protein. In the iTopia study, it was reported that an iScore of: >0.5 represented “good quality binding”; between 0.25 and 0.5 represented “medium quality binding”; and <0.25 represented “poor quality binding”. Six of the 20 peptides which gave a “good” iScore (>0.5) for A*0201, represented previously characterised CMV pp 65 A*0201 epitopes.
(§3) Each MHC class I allele has different binding properties and affinities for peptides which they bind. Therefore, information obtained with HLA A*0201 in which peptides are ranked as good, medium or poor binders using >0.5, 0.25-0.5 and <0.25 as thresholds is not necessarily transferable between alleles. Also, different proteins are likely to have distinct immunogenic profiles and the affinities between peptides and MHC class I molecules will be different between proteins. This may be particularly relevant in the case of self-antigens where immunogenicity is likely to be lower than in foreign proteins.
(§4) Multi-parametric analysis permits the integration of half-life and ED50 parameters in an integrated iScore. This reflects the capability of a peptide to reconstitute with MHC molecules in a stable complex, defining its overall level of binding i.e. the iScore value represents the overall quality of peptide-MHC binding and is used to rank candidate peptides as an indicator of functional relevance. The lead candidate epitopes for each allele are selected for cellular functional analysis to confirm their biological relevance.
(§5) The changes in gradient of the graphs in FIGS. 7 to 10 are indicated by a line which delineates the populations of iScores forming the basis of discrimination for further functional studies.

[2] = target: MHC class I allele A*0301 (A3) (Homo sapiens, UniProt P04439); experiment: iScore multi-parametric analysis, A*0301; assay type: binding; details: for iScore, MHC Class I Molecule A*0301: level of binding: >0.5, 0.25-0.5, <0.25
Experimental: as §1, §2, §3, §4, §5

[3] = target: MHC class I allele B*0702 (B7) (Homo sapiens, UniProt P01889); experiment: iScore multi-parametric analysis, B*0702; details: level of binding: >0.5, 0.25-0.5, <0.25
Experimental: as §1
As part of the validation of the iTopia system, a panel of overlapping peptides derived from the CMV pp 65 protein were used and their binding properties for the A*0201 allele analysed. A number of T cell epitopes restricted by HLA A*0201 had already been identified (by more conventional methodologies) by other researchers for this protein. In the iTopia study, it was reported that an iScore of: >0.5 represented “good quality binding”; between 0.25 and 0.5 represented “medium quality binding”; and <0.25 represented “poor quality binding”.
as §4

[4] = target: MHC class I allele A*0201 (A2) (Homo sapiens, UniProt P04439, D140Y/D185E/D98H/E176V/E277Q/G131W/G231S/I119V/I121R/I166T/I218V/L300P/L318F/N151K/N90K/P208A/P217A/Q86G/Q94H/R138H/R169H/T345S); experiment: iScore multi-parametric analysis, A*0201; assay type: binding; details: level of binding: >0.5, 0.25-0.5, <0.25
Experimental: as §1, §2, §3, §4, §5

Molecule	iScore, MHC Class I Molecule A*0101 [1]	iScore, MHC Class I Molecule A*0301 [2]	iScore, MHC Class I Molecule B*0702 [3]	iScore, MHC Class I Molecule A*0201 [4]	iScore (iTopia), A*0301 ([2]; integrates half-life and ED50)
LALIGAIFL [Peptide 182]	0	0	0.067	0.425	–
SSFSSSAPF [Peptide 20]	0	0	0	0.037	–
VFLDNNPWV [Peptide 145]	0	0	0	0.239	–
NRVLLELNS [Peptide 166]	0	0	0	0.031	–
RDACRDHME [Peptide 195]	0	0	0	0.08	–
KWMHNIRDA [Peptide 192]	0	0	0	0.045	–
LLAGRALQG [Peptide 102]	0	0	0	0.176	–
SLQTSYVFL [Peptide 176]	0	0	0	0.561	–
LAVLPAGAF [Peptide 52]	0	0	0.049	0.074	–
VLAQLPSLR [Peptide 115]	0	0.023	0	0.113	–
EKMRNRVLL [Peptide 164]	0	0	0	0.096	–
NQLAVLPAG [Peptide 51]	0	0	0	0.22	–
CSCC[C@H](NC(=O)[C@H](CC(=O)O)NC(=O)[C@H](C)NC(=O)[C@H](CCSC)NC(=O)[C@H](Cc1c[nH]cn1)NC(=O)[C@H](CS)NC(=O)[C@H](CC(=O)O)NC(=O)[C@H](CS)NC(=O)[C@@H](N)C(C)C)C(=O)O [Peptide 149] (H-VCDCHMADM-OH; N-terminus and C-terminus assumed)	0	0	0	0.061	–
ASVSAPSPL [Peptide 84]	0	0	0.017	0.059	–
SASSFSSSA [Peptide 19]	0	0	0	0.045	–
LELASNHFL [Peptide 108]	0	0	0	0.151	–

Molecule	iScore, MHC Class I Molecule A*0101 [1]	iScore, MHC Class I Molecule A*0301 [2]	iScore, MHC Class I Molecule B*0702 [3]	iScore, MHC Class I Molecule A*0201 [4]	iScore (iTopia), A*0301 ([2]; integrates half-life and ED50)
CVNRNLTEV [Peptide 39]	0	0	0.093	0.05	–
QTSYVFLGI [Peptide 177]	0.027	0	0	0.127	–
AYVRNLFLT [Peptide 46]	0	0	0	0.18	–
LYLPRDVLA [Peptide 112]	0	0	0	0.218	–
FSSSAPFLA [Peptide 21]	0.023	0	0	0.116	–
SNHFLYLPR [Peptide 110]	0	0.084	0	0.051	–
FLASAVSAQ [Peptide 24]	0	0	0	0.134	–
RGPAAGDGR [Peptide 4]	0	0	0	0.032	–
LTNLSSNSD [Peptide 206]	0	0	0	0.027	–
ALKVLHNGT [Peptide 135]	0	0	0	0.104	–
GLPHIRVFL [Peptide 142]	0	0.319	0.075	1.39	0.319
LSGSRLDEV [Peptide 63]	0	0	0.107	0.075	–
LLGWVSSSS [Peptide 13]	0	0	0	0.243	–
TWLKETEVV [Peptide 154]	0	0	0	0.184	–
APFLASAVS [Peptide 23]	0	0	0.176	0.041	–
